Assay results as given in patent US20170050957A1, “4-AMINO-6-(HETEROCYCLIC)PICOLINATES AND 6-AMINO-2-(HETEROCYCLIC)PYRIMIDINE-4-CARBOXYLATES AND THEIR USE AS HERBICIDES” (Dow AgroSciences LLC, priority 2013, published 2017).
Like-named read-outs stand apart in the source and are kept apart here.

Legend:
[1] = test system: Key Broadleaf Weed and Crop Species; assay: Post-emergent Test II herbicidal activity (Table 15); assay type: in vivo; settings: post-emergence, 336 h, 14 d; for pest or weed control at 35 g/ha: 35 g ai/ha; for pest or weed control at 70 g/ha: 70 g ai/ha; for pest or weed control at 140 g/ha: 140 g ai/ha; for pest or weed control at 280 g/ha: 280 g ai/ha
In short: (§1)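 Visual injury rating (0 = none, 100 = complete kill) taken 14 d after treatment, relative to untreated plants. Compounds in acetone/DMSO with crop oil concentrate and Triton X-155 were track-sprayed at 187 L/ha onto seedlings at the first-second true leaf stage.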

[2] = test system: Key Grass and Sedge Weeds as well as Grass Crops; assay: Post-emergent Test II herbicidal activity (Table 16); assay type: in vivo; settings: post-emergence, 336 h, 14 d; for pest or weed control at 35 g/ha: 35 g ai/ha; for pest or weed control at 70 g/ha: 70 g ai/ha; for pest or weed control at 140 g/ha: 140 g ai/ha; for pest or weed control at 280 g/ha: 280 g ai/ha
In short: as §1

[3] = Abutilon theophrasti, velvetleaf (Abutilon theophrasti), read-out: Visual Growth Reduction (%) 14 Days After Application, ABUTH
[4] = Amaranthus retroflexus, redroot pigweed (Amaranthus retroflexus), read-out: Visual Growth Reduction (%) 14 Days After Application, AMARE
[5] = Brassica napus, oilseed rape, canola (Brassica napus), read-out: Visual Growth Reduction (%) 14 Days After Application, BRSNN
[6] = Chenopodium album, lambsquarters (Chenopodium album), read-out: Visual Growth Reduction (%) 14 Days After Application, CHEAL
[7] = Euphorbia heterophylla, wild poinsettia (Euphorbia heterophylla), read-out: Visual Growth Reduction (%) 14 Days After Application, EPHHL
[8] = Helianthus annuus, sunflower (Helianthus annuus), read-out: Visual Growth Reduction (%) 14 Days After Application, HELAN
[9] = Cyperus esculentus, yellow nutsedge (Cyperus esculentus), read-out: Visual Growth Reduction (%) 14 Days After Application, CYPES
[10] = Echinochloa crus-galli, barnyardgrass (Echinochloa crus-galli), read-out: Visual Growth Reduction (%) 14 Days After Application, ECHCG
[11] = Oryza sativa, rice (Oryza sativa), read-out: Visual Growth Reduction (%) 14 Days After Application, ORYSA
[12] = Setaria faberi, giant foxtail (Setaria faberi), read-out: Visual Growth Reduction (%) 14 Days After Application, SETFA
[13] = Triticum aestivum, wheat, spring (Triticum aestivum), read-out: Visual Growth Reduction (%) 14 Days After Application, TRZAS
[14] = Zea mays, maize, corn (Zea mays), read-out: Visual Growth Reduction (%) 14 Days After Application, ZEAMX

With COC(=O)c1nc(-c2ccc3occc3c2)cc(N)c1Cl [Compound 2.03] the pest or weed control at 35 g/ha [1, 3] was 95 to 100%, the pest or weed control at 70 g/ha [1, 3] was 95 to 100% and the pest or weed control at 140 g/ha [1, 3] was 95 to 100%. It also gave a pest or weed control at 280 g/ha [1, 3] of 95 to 100%, a pest or weed control at 35 g/ha [1, 4] of 60 to 74% and a pest or weed control at 70 g/ha [1, 4] of 85 to 94%. It also gave a pest or weed control at 140 g/ha [1, 4] of 85 to 94%, a pest or weed control at 280 g/ha [1, 4] of 95 to 100% and a pest or weed control at 35 g/ha [1, 5] of 0 to 29%. The pest or weed control at 70 g/ha [1, 5] was 0 to 29%, the pest or weed control at 140 g/ha [1, 5] was 0 to 29% and the pest or weed control at 280 g/ha [1, 5] was 30 to 44%. For the same compound, the pest or weed control at 35 g/ha [1, 6] was 85 to 94%, the pest or weed control at 70 g/ha [1, 6] was 95 to 100% and the pest or weed control at 140 g/ha [1, 6] was 95 to 100%. The pest or weed control at 280 g/ha [1, 6] was 95 to 100%, the pest or weed control at 35 g/ha [1, 7] was 45 to 59% and the pest or weed control at 70 g/ha [1, 7] was 75 to 84%. It also gave a pest or weed control at 140 g/ha [1, 7] of 75 to 84%, a pest or weed control at 280 g/ha [1, 7] of 85 to 94% and a pest or weed control at 35 g/ha [1, 8] of 0 to 29%. It also gave a pest or weed control at 70 g/ha [1, 8] of 60 to 74%, a pest or weed control at 140 g/ha [1, 8] of 75 to 84% and a pest or weed control at 280 g/ha [1, 8] of 85 to 94%. It also gave a pest or weed control at 35 g/ha [2, 9] of 0 to 29%, a pest or weed control at 70 g/ha [2, 9] of 0 to 29% and a pest or weed control at 140 g/ha [2, 9] of 0 to 29%. It also gave a pest or weed control at 280 g/ha [2, 9] of 0 to 29%, a pest or weed control at 35 g/ha [2, 10] of 30 to 44% and a pest or weed control at 70 g/ha [2, 10] of 60 to 74%. It also gave a pest or weed control at 140 g/ha [2, 10] of 85 to 94%, a pest or weed control at 280 g/ha [2, 10] of 95 to 100% and a pest or weed control at 35 g/ha [2, 11] of 0 to 29%. The pest or weed control at 70 g/ha [2, 11] was 0 to 29%, the pest or weed control at 140 g/ha [2, 11] was 0 to 29% and the pest or weed control at 280 g/ha [2, 11] was 0 to 29%. The pest or weed control at 35 g/ha [2, 12] was 0 to 29%, the pest or weed control at 70 g/ha [2, 12] was 0 to 29% and the pest or weed control at 140 g/ha [2, 12] was 30 to 44%. It also gave a pest or weed control at 280 g/ha [2, 12] of 30 to 44%, a pest or weed control at 35 g/ha [2, 13] of 0 to 29% and a pest or weed control at 70 g/ha [2, 13] of 0 to 29%. It also gave a pest or weed control at 140 g/ha [2, 13] of 0 to 29%, a pest or weed control at 280 g/ha [2, 13] of 0 to 29% and a pest or weed control at 35 g/ha [2, 14] of 0 to 29%. For the same compound, the pest or weed control at 70 g/ha [2, 14] was 0 to 29%, the pest or weed control at 140 g/ha [2, 14] was 0 to 29% and the pest or weed control at 280 g/ha [2, 14] was 60 to 74%. The melting point was 84 to 87 °C.
